Reference: PubChem BioAssay AID256 (DTP/NCI, 2004)
Where “and” joins values, the source holds several entries; their conditions need not be identical. Identical values can stand only once. Inconclusive results and toxic doses are left out.

Tested on: CD2F1 mice, L1210 leukemia ip, survival T/C
Assay: NCI In Vivo Anticancer Drug Screen. Data for tumor model L1210 Leukemia (intraperitoneal) in CD2F1 (CDF1) mice
Settings: higher = longer survival
Method in brief: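 In this screen, transplantable tumors were grown in mice given either the compound or its vehicle. Results were expressed as the treated measurement relative to the control measurement.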

[1] = endpoint: mean survival time, dose: 100.0 mg/kg/injection, schedule: Q01DX009 (ip), vehicle: saline with Tween-80
[2] = endpoint: mean survival time, dose: 200.0 mg/kg/injection, schedule: Q01DX009 (ip), vehicle: saline with Tween-80
[3] = endpoint: mean survival time, dose: 400.0 mg/kg/injection, schedule: Q01DX009 (ip), vehicle: saline with Tween-80
[4] = endpoint: mean survival time, dose: 100.0 mg/kg/injection, schedule: Q01DX009 (ip), vehicle: saline
[5] = endpoint: mean survival time, dose: 100.0 mg/kg/injection, schedule: Q04DX003 (ip), vehicle: saline with Tween-80
[6] = endpoint: mean survival time, dose: 200.0 mg/kg/injection, schedule: Q04DX003 (ip), vehicle: saline with Tween-80
[7] = endpoint: mean survival time, dose: 400.0 mg/kg/injection, schedule: Q04DX003 (ip), vehicle: saline with Tween-80

Cc1ccc(C#CC(C)(C)O)cn1
T/C [1]: 94 % of control | T/C [2]: 102 % of control | T/C [3]: 122 % of control

NS(=O)(=O)c1ccc(N=Cc2ccccc2O)cc1
T/C [1]: 95 % of control | T/C [2]: 89 % of control | T/C [3]: 86 % of control

CC(=O)N(Cc1ccccn1)N=O
T/C (endpoint: mean survival time, dose: 75.0 mg/kg/injection, schedule: Q01DX001 (ip), vehicle: water): 112 % of control | T/C (endpoint: mean survival time, dose: 150.0 mg/kg/injection, schedule: Q01DX001 (ip), vehicle: water): 122 % of control

S=C1NC=CC(S)N1 (stereo not drawn)
T/C (endpoint: mean survival time, dose: 100.0 mg/kg/injection, schedule: Q04DX002 (ip), vehicle: saline with Tween-80): 103 % of control | T/C (endpoint: mean survival time, dose: 200.0 mg/kg/injection, schedule: Q04DX002 (ip), vehicle: saline with Tween-80): 98 % of control | T/C (endpoint: mean survival time, dose: 400.0 mg/kg/injection, schedule: Q04DX002 (ip), vehicle: saline with Tween-80): 98 % of control

CCOC(/C=C/c1ccccc1)OCC
T/C [4]: 100 % of control | T/C (endpoint: mean survival time, dose: 200.0 mg/kg/injection, schedule: Q01DX009 (ip), vehicle: saline): 94 % of control | T/C (endpoint: mean survival time, dose: 400.0 mg/kg/injection, schedule: Q01DX009 (ip), vehicle: saline): 103 % of control

Cc1ccc(S(=O)(=O)/C=C(\I)c2ccccc2)cc1
T/C [1]: 91 % of control | T/C [5]: 96 % of control | T/C [2]: 94 % of control | T/C [6]: 96 % of control | T/C [3]: 94 % of control | T/C [7]: 93 % of control

COC(=O)C1OC(OC(C)=O)C(OC(C)=O)C(OC(C)=O)C1OC(C)=O (stereo not drawn)
T/C (endpoint: mean survival time, dose: 75.0 mg/kg/injection, schedule: Q04DX003 (ip), vehicle: saline with Tween-80): 98 % of control | T/C (endpoint: mean survival time, dose: 150.0 mg/kg/injection, schedule: Q04DX003 (ip), vehicle: saline with Tween-80): 98 % of control | T/C (endpoint: mean survival time, dose: 300.0 mg/kg/injection, schedule: Q04DX003 (ip), vehicle: saline with Tween-80): 92 % of control

O/N=C\C[n+]1cc2ccccc2cc1/C=N\O
T/C (endpoint: mean survival time, dose: 12.5 mg/kg/injection, schedule: Q04DX003 (ip), vehicle: saline): 93 % of control | T/C (endpoint: mean survival time, dose: 25.0 mg/kg/injection, schedule: Q04DX003 (ip), vehicle: saline): 101 % of control | T/C (endpoint: mean survival time, dose: 50.0 mg/kg/injection, schedule: Q04DX003 (ip), vehicle: saline): 90 % of control

O=C(O)Cc1ccccc1C(=O)O
T/C (endpoint: mean survival time, dose: 100.0 mg/kg/injection, schedule: Q04DX003 (ip), vehicle: Klucel (hydroxypropylcellulose) (HPC)): 96 % of control | T/C (endpoint: mean survival time, dose: 200.0 mg/kg/injection, schedule: Q04DX003 (ip), vehicle: Klucel (hydroxypropylcellulose) (HPC)): 104 % of control | T/C (endpoint: mean survival time, dose: 400.0 mg/kg/injection, schedule: Q04DX003 (ip), vehicle: Klucel (hydroxypropylcellulose) (HPC)): 96 % of control

NNC(=O)c1ccc(C(=O)NN)cc1
T/C (endpoint: mean survival time, dose: 100.0 mg/kg/injection, schedule: Q01DX001 (ip), vehicle: Klucel (hydroxypropylcellulose) (HPC)): 91 % of control | T/C [1]: 97 % of control | T/C [5]: 94 % of control | T/C (endpoint: mean survival time, dose: 200.0 mg/kg/injection, schedule: Q01DX001 (ip), vehicle: Klucel (hydroxypropylcellulose) (HPC)): 100 % of control | T/C [2]: 107 % of control | T/C [6]: 96 % of control | T/C (endpoint: mean survival time, dose: 400.0 mg/kg/injection, schedule: Q01DX001 (ip), vehicle: Klucel (hydroxypropylcellulose) (HPC)): 88 % of control | T/C [3]: 104 % of control | T/C [7]: 96 % of control

CC(=O)O/C=C/C=C/C=N/c1nc2c(c(=O)n(C)c(=O)n2C)n1C
T/C (endpoint: mean survival time, dose: 12.5 mg/kg/injection, schedule: Q01DX005 (ip), vehicle: distilled water + Tween-80): 105 % of control | T/C (endpoint: mean survival time, dose: 25.0 mg/kg/injection, schedule: Q01DX005 (ip), vehicle: distilled water + Tween-80): 91 % of control | T/C (endpoint: mean survival time, dose: 50.0 mg/kg/injection, schedule: Q01DX005 (ip), vehicle: distilled water + Tween-80): 94 % of control | T/C (endpoint: mean survival time, dose: 100.0 mg/kg/injection, schedule: Q01DX005 (ip), vehicle: distilled water + Tween-80): 103 % of control | T/C (endpoint: mean survival time, dose: 200.0 mg/kg/injection, schedule: Q01DX005 (ip), vehicle: distilled water + Tween-80): 97 % of control

O=C(CCl)OCC(Cl)Cl
T/C [1]: 104 % of control | T/C [2]: 112 % of control

CN1N=C(N)c2cn(C3OC(CO)C4OC(C)(C)OC43)c3ncnc1c23 (stereo not drawn)
T/C (endpoint: mean survival time, dose: 12.5 mg/kg/injection, schedule: Q01DX005 (ip), vehicle: water): 87 % of control | T/C (endpoint: mean survival time, dose: 25.0 mg/kg/injection, schedule: Q01DX005 (ip), vehicle: water): 96 % of control | T/C (endpoint: mean survival time, dose: 50.0 mg/kg/injection, schedule: Q01DX005 (ip), vehicle: water): 104 % of control | T/C (endpoint: mean survival time, dose: 100.0 mg/kg/injection, schedule: Q01DX005 (ip), vehicle: water): 104 % of control

CSCCC(NC(=O)c1ccccc1)C(=O)O (stereo not drawn)
T/C [1]: 91 % of control | T/C [2]: 87 % of control | T/C [3]: 90 % of control

CC(=O)Nc1nc(Br)c2ccccc2c1-c1ccc(N(CCOS(=O)(=O)c2ccc(C)cc2)CCOS(=O)(=O)c2ccc(C)cc2)cc1
T/C (endpoint: mean survival time, dose: 12.5 mg/kg/injection, schedule: Q04DX003 (ip), vehicle: DMSO): 98 % of control | T/C (endpoint: mean survival time, dose: 25.0 mg/kg/injection, schedule: Q04DX003 (ip), vehicle: DMSO): 102 % of control | T/C (endpoint: mean survival time, dose: 50.0 mg/kg/injection, schedule: Q04DX003 (ip), vehicle: DMSO): 102 % of control | T/C (endpoint: mean survival time, dose: 100.0 mg/kg/injection, schedule: Q04DX003 (ip), vehicle: DMSO): 105 % of control

NC1CCCCC1N.O=S(=O)([O-])CCCNC1CCCCC1.O=S(=O)([O-])CCCNC1CCCCC1.[Pt+4]
T/C (endpoint: median survival time, dose: 0.78 mg/kg/injection, schedule: Q04DX003 (ip), vehicle: saline): 168 % of control | T/C (endpoint: median survival time, dose: 1.56 mg/kg/injection, schedule: Q04DX003 (ip), vehicle: saline): 256 % of control | T/C (endpoint: median survival time, dose: 3.12 mg/kg/injection, schedule: Q04DX003 (ip), vehicle: saline): 361 % of control and 365 % of control | T/C (endpoint: median survival time, dose: 6.25 mg/kg/injection, schedule: Q04DX003 (ip), vehicle: saline): 169 % of control and 240 % of control

NCCOS(=O)(=O)O
T/C (endpoint: mean survival time, dose: 25.0 mg/kg/injection, schedule: Q01DX009 (ip), vehicle: saline): 102 % of control | T/C (endpoint: mean survival time, dose: 50.0 mg/kg/injection, schedule: Q01DX009 (ip), vehicle: saline): 98 % of control | T/C [4]: 96 % of control

O=[N+]([O-])c1cccc(C=Nc2ccc3c(c2)C(Br)c2ccccc2-3)c1 (stereo not drawn)
T/C [5]: 97 % of control | T/C [6]: 90 % of control

CN1CC(=O)N=C1N.CN1CC(=O)N=C1N.[Cl][Pt][Cl]
T/C (endpoint: mean survival time, dose: 3.13 mg/kg/injection, schedule: Q04DX003 (ip), vehicle: water): 102 % of control | T/C (endpoint: mean survival time, dose: 6.25 mg/kg/injection, schedule: Q04DX003 (ip), vehicle: water): 96 % of control | T/C (endpoint: mean survival time, dose: 12.5 mg/kg/injection, schedule: Q04DX003 (ip), vehicle: water): 96 % of control | T/C (endpoint: mean survival time, dose: 25.0 mg/kg/injection, schedule: Q04DX003 (ip), vehicle: water): 100 % of control | T/C (endpoint: mean survival time, dose: 50.0 mg/kg/injection, schedule: Q04DX003 (ip), vehicle: water): 102 % of control | T/C (endpoint: mean survival time, dose: 100.0 mg/kg/injection, schedule: Q04DX003 (ip), vehicle: water): 92 % of control

COc1ccc(NC(C)=O)c(O)c1C
T/C (endpoint: mean survival time, dose: 100.0 mg/kg/injection, schedule: Q01DX001 (ip), vehicle: saline with Tween-80): 95 % of control | T/C (endpoint: mean survival time, dose: 400.0 mg/kg/injection, schedule: Q01DX001 (ip), vehicle: saline with Tween-80): 90 % of control

O=NNc1ccc(Cl)cn1
T/C (endpoint: median survival time, dose: 1.5 mg/kg/injection, schedule: Q01DX009 (ip), vehicle: water): 110 % of control | T/C (endpoint: median survival time, dose: 1.56 mg/kg/injection, schedule: Q01DX009 (ip), vehicle: water): 104 % of control | T/C (endpoint: median survival time, dose: 3.0 mg/kg/injection, schedule: Q01DX009 (ip), vehicle: water): 114 % of control | T/C (endpoint: median survival time, dose: 3.12 mg/kg/injection, schedule: Q01DX009 (ip), vehicle: water): 117 % of control | T/C (endpoint: median survival time, dose: 6.0 mg/kg/injection, schedule: Q01DX009 (ip), vehicle: water): 119 % of control | T/C (endpoint: median survival time, dose: 12.5 mg/kg/injection, schedule: Q01DX009 (ip), vehicle: water): 104 % of control | T/C (endpoint: median survival time, dose: 24.0 mg/kg/injection, schedule: Q01DX009 (ip), vehicle: water): 107 % of control

CC(C)C(C#[N+][O-])C(C)C
T/C (endpoint: mean survival time, dose: 75.0 mg/kg/injection, schedule: Q01DX001 (ip), vehicle: other): 108 % of control | T/C (endpoint: mean survival time, dose: 150.0 mg/kg/injection, schedule: Q01DX001 (ip), vehicle: other): 105 % of control | T/C (endpoint: mean survival time, dose: 300.0 mg/kg/injection, schedule: Q01DX001 (ip), vehicle: other): 96 % of control

COc1ccc2nc3cc(Cl)ccc3c(Nc3cccc(NS(C)(=O)=O)c3)c2n1
T/C (endpoint: mean survival time, dose: 12.5 mg/kg/injection, schedule: Q01DX009 (ip), vehicle: other): 100 % of control | T/C (endpoint: mean survival time, dose: 25.0 mg/kg/injection, schedule: Q01DX009 (ip), vehicle: other): 93 % of control | T/C (endpoint: mean survival time, dose: 50.0 mg/kg/injection, schedule: Q01DX009 (ip), vehicle: other): 89 % of control | T/C (endpoint: mean survival time, dose: 100.0 mg/kg/injection, schedule: Q01DX009 (ip), vehicle: other): 93 % of control | T/C (endpoint: mean survival time, dose: 200.0 mg/kg/injection, schedule: Q01DX009 (ip), vehicle: other): 93 % of control
